This is an account of results in PubChem BioAssay (NCI).

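In this assay, cells in 96-well plates receive the compound at five concentrations for 48 hours. Endpoints are linearly interpolated between the surrounding concentrations. GI50 marks 50% less growth. TGI is the concentration that stops growth completely.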 Where a SMILES comes first, the peptide text is derived from it. The star is where a group is joined. Cbz = O=C(OCc1ccccc1)*; OBn = c1ccc(CO*)cc1

Test in all cases: NCI tumour cell line growth inhibition, 48 h
The subject of assay [1] is 786-0 renal.
Assay [2] relates to A498 renal.
In assay [3] the test system is MALME-3M melanoma.
In assay [4] the test system is MDA-N.
In assay [5] the test system is NCI-H460 lung.
The test system of assay [6] is PC-3 prostate.
Assay [7] relates to SNB-19 CNS.
For assay [8], the system named is HCT-15 colon.
The subject of assay [9] is HOP-92 NSCLC.

Turning to `CC(C)OP(=O)(OC(C)C)C(C(C)C)N(C)/C(N)=N\C1=NC(C(F)(F)F)(C(F)(F)F)N=C(C(C(F)(F)F)C(F)(F)F)O1` (stereo unspecified), the TGI in assay [1] amounted to 12.4 µM; in assay [2] it was 23.5 µM; in [3], 22.7 µM; in [4], 4.91 µM; in [5], 9.91 µM; in [6], 8.42 µM. The molecule further registered a TGI in assay [7] of 44.9 µM.
Take `COc1ccccc1C1CC(=O)CC(c2ccccc2OC)C12C(=O)NC(=S)NC2=O` (stereo unspecified): the TGI in assay [1] was greater than 100 µM; in assay [8] it was greater than 100 µM; in assay [9] it was greater than 100 µM; in assay [3], greater than 100 µM; in assay [4], 52.5 µM; in assay [5] it was greater than 100 µM. In addition, the TGI in assay [6] and in [7] was greater than 100 µM throughout.
On to `CC1C2CC(CC(=O)N2)C1(C)C` (stereo unspecified), for which the TGI in assay [1], in assay [2], in assay [9], in [3], in assay [4] and in assay [5] was greater than 100 µM in each case. Besides, the TGI in assay [6] and in assay [7] was greater than 100 µM in each case.
As to `COc1ccc(/C=C2/C(C)=NN(c3cccc(Cl)c3)/C2=N/c2nc3ccccc3s2)cc1`, the TGI in assay [1] worked out at 38.1 µM; in [2], 62.4 µM; in assay [8], 36.1 µM; in assay [9], 47.7 µM; in [4] it was 41.6 µM; in [5] it was 43.2 µM. The same molecule displayed a TGI in [6] of 38 µM.
Consider `CCc1nnc(CC)n1NCCCC(=O)O`, for which the TGI in assay [1], in assay [8], in assay [9], in assay [4], in [6] and in [7] was greater than 100 µM in each case.
In the case of `CSC1=N[C@H](c2ccccc2)CS1`, the TGI in [1], in [2], in assay [8], in [4], in assay [5] and in assay [6] was greater than 100 µM throughout. For the same molecule, the TGI in assay [7] was greater than 100 µM.
Regarding `COc1cc(Br)c(OC)c2c(OC)cc(C)cc12`, the TGI in assay [1], in assay [2], in assay [8], in assay [3], in assay [5] and in assay [6] was greater than 100 µM in each case. The TGI in [7] is greater than 100 µM.
On to `Nc1ccn(C2CC(O)C(COP(O)(=S)OC3CC(n4ccc(N)nc4=O)OC3CO)O2)c(=O)n1` (stereo unspecified), for which the TGI in assay [1], in assay [8], in assay [9], in assay [4], in assay [5] and in assay [6] was greater than 100 µM in each case. The TGI in [7] is greater than 100 µM.
On to `CCOC(=O)NC(C(F)(F)F)(C(F)(F)F)P(=O)(OC(C)C)OC(C)C`, for which the TGI in [1], in assay [8], in [3], in assay [4], in assay [5] and in [6] was greater than 100 µM in each case. Moreover, the TGI in assay [7] was greater than 100 µM.
With `CC1=NC(=O)C(C)(c2ccccc2)N1CCc1ccccc1` (stereo unspecified), the TGI in assay [1], in [2], in assay [8], in [9], in [3] and in assay [4] was greater than 100 µM in each case. In addition, the TGI in [6] and in assay [7] was greater than 100 µM throughout.
`COC(=O)N1C[C@@]2(C=CC3(CC2)OCCO3)c2ccccc21`: the TGI in assay [1], in assay [2], in assay [8], in assay [9], in assay [4] and in assay [5] was greater than 100 µM in each case. In addition, the TGI in assay [6] and in assay [7] was greater than 100 µM throughout.
Consider `C=C1C(=O)C([Si](C)(C)C)=C2C=C(C)C3(CC3)C12C` (stereo unspecified), for which the TGI in assay [1] was greater than 100 µM; in assay [2] it was greater than 100 µM; in [8], greater than 100 µM; in assay [3] it was 78.7 µM; in assay [4], greater than 100 µM; in [5] it was greater than 100 µM. For the same molecule, the TGI in assay [6] is 42.5 µM; in assay [7], greater than 100 µM.
Take `O=C(O)C(=C\c1ccc2c(c1)OCO2)/C(=C/c1ccc2c(c1)OCO2)C(=O)O`: the TGI in assay [2], in assay [8], in assay [9], in assay [3], in assay [4] and in [5] was greater than 100 µM each time. Also, the TGI in assay [6] and in assay [7] was greater than 100 µM each time.
Turning to `Cn1nc(Cc2ccc(Cl)cc2)n(N)c1=O`, the TGI in [1], in assay [2], in [8], in assay [3], in assay [4] and in assay [5] was greater than 100 µM throughout. Besides, the TGI in [6] and in [7] was greater than 100 µM in each case.
Take `O=c1n(/N=C/c2ccccc2)c(=O)n2n1C1C=CC2CC1`: the TGI in assay [1], in assay [2], in assay [8], in [9], in [4] and in [5] was greater than 100 µM in each case. Also, the TGI in [6] and in assay [7] was greater than 100 µM throughout.
With `O=C(O)c1c[nH]c2c(Sc3ccccc3)nccc2c1=O`, the TGI in assay [1], in assay [2], in [8], in [9], in [4] and in assay [5] was greater than 100 µM in each case. Further, the TGI in assay [6] and in assay [7] was greater than 100 µM throughout.
In the case of `COC(=O)CNC(=O)C(C)NC(=O)C(CC(=O)OCc1ccccc1)NC(=O)OCc1ccccc1` (stereo not drawn) (Cbz-Asp(OBn)-Ala-Gly-OMe; configuration not given here), the TGI in assay [1], in [8], in [9], in assay [3], in assay [4] and in [5] was greater than 100 µM each time. In addition, the TGI in [6] and in assay [7] was greater than 100 µM throughout.
Regarding `Cc1nc2sc(CCl)nn2c(=O)c1Cl`, the TGI in assay [1] turned out to be 22.4 µM; in assay [8] it was 23.8 µM; in assay [9], 18.7 µM; in [3] it was 24.9 µM; in assay [4], 24.8 µM; in assay [5] it was 25.3 µM. Also, the TGI turned out to be 25.1 µM in assay [6] and 32.3 µM in assay [7].
For the molecule `COc1cc2c(/C=C3/C(=O)Nc4ccc(Cl)cc43)c(Cl)n(Cc3ccccc3)c2cc1C`, the TGI in assay [1] was 6.41 µM; in [2], 5.72 µM; in [8], 17.8 µM; in assay [9], 25.9 µM; in assay [3], 4.38 µM; in assay [5], greater than 100 µM. Further, the TGI in [6] turned out to be 22.2 µM; in assay [7] it was 8.98 µM.
For `COc1ccc(-c2ccc(-c3ccc(C(=N)N)nc3)s2)cc1`, the GI50 in assay [8] was 1.27 µM; in [9], 1.5 µM; in assay [3] it was 1.84 µM; in assay [5], 0.524 µM; in assay [6], 1.68 µM. For the same molecule, the TGI in assay [8] is 2.7 µM; in assay [9], 3.07 µM; in [3], 3.44 µM; in assay [5], 1.82 µM; in [6] it was 3.31 µM.
Take `CCOC(=O)/C(N=Nc1ccc(-n2c(C)nc3ccccc3c2=O)cc1)=C(/C)O`: the TGI in [1], in assay [2], in assay [8], in [9], in assay [4] and in assay [5] was greater than 100 µM throughout. Further, the TGI in assay [6] and in [7] was greater than 100 µM in each case.
For `O=C1NC(N2CCOCC2)=N/C1=C\c1cccs1`, the TGI in assay [1], in [8], in assay [9], in [3], in assay [4] and in assay [6] was greater than 100 µM throughout. In addition, the TGI in [7] is greater than 100 µM.
For `NC1CC(=O)c2cc(Cl)sc21` (stereo unspecified), the TGI in assay [1], in assay [8], in assay [9], in assay [3], in [4] and in assay [5] was greater than 100 µM each time. Also, the TGI in assay [6] and in assay [7] was greater than 100 µM throughout.
`COc1ccc2c(c1)CC[C@@H]1[C@@H]2CC[C@]2(C)C(=O)C3(CCCCC3)C[C@@H]12`: the GI50 in assay [2], in [8], in [9], in assay [3], in assay [6] and in [7] was greater than 100 µM each time. Besides, the TGI in assay [2], in assay [8], in [9], in [3], in [6] and in [7] was greater than 100 µM throughout.
For `NCCCNCCCNCCCN`, the TGI in assay [1], in [2], in [8], in assay [3], in assay [4] and in assay [6] was greater than 100 µM throughout. Also, the TGI in [7] is greater than 100 µM.
